Results reported in publication PMC11530130, “Peripherally restricted PICK1 inhibitor mPD5 ameliorates pain behaviors in murine inflammatory and neuropathic pain models” (JCI Insight, 2024).
Several values for one entry are separate records, joined by “and”; a condition that tells them apart may be missing. Equal values may be shown once. Entries after “also recorded” stand apart in the source; their conditions may differ.

How the values were obtained:
[1] = system: PICK1-WT and PICK1-KO mice, SNI model; experiment: SNI model, von Frey, PICK1-WT and PICK1-KO mice; type: in vivo, mouse; details: for effect on mechanical hypersensitivity (PWT): s.c.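 As to von Frey paw withdrawal threshold, individual animals (Fig 5F): time points given in hours with 0 hours as the comparison point.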
Protocol: solution (0.05 mg/kg) injected s.c. 30 min before surgery (10 μL/g). For surgery, mice were anaesthetised with ketamine (100 mg/kg, i.p.) and xylazine (10 mg/kg, i.p.) (volume 10 µL/g) with 100 μL of 1% xylocaine solution infiltrated at the site of the incision. The distal trifurcation of the sciatic nerve was identified, and the tibial and common peroneal branches were ligated with polypropylene nonabsorbable 6-0 sutures (Ethicon) and 1 mm was cut out, leaving the sural branch intact. The wound was closed with sutures, and the animals were allowed to recover and returned to their cages. Two subcutaneous injections of buprenorphine (0.05 mg/kg) were performed with an 8 to 12 hours delay decreasing pain due to the surgery […]
The remaining SNI pain experiments were performed in-house using the following procedure.
SNI surgery was performed on the left hindleg of C57BL/6J male and female mice (Janvier, France) under 2% isoflurane anaesthesia. Skin on the lateral surface was incised between hip and knee followed by lengthwise division of the biceps femoris muscle leading to exposure of the three branches of the sciatic nerve. Sural branch was left intact, while the peroneal and tibial branches were ligated with a single surgical knot and axotomized distally of the ligation.
Wounds were closed with surgical glue or medical clips and animals were monitored daily for signs of stress or discomfort, but in all cases recovered uneventfully. […]
The skin wound was closed with two medical clips (Michel Suture Clips, 7.5x1.75 mm, Angthos, 12040-01). Post-surgical analgesia included s.c. injection of 5 mg/kg carprofen (Carprosan vet, 50 mg/mL mixed 1:25 in sterile ddH2O, Dechra, Le Vet Beheer B.V., Netherlands, Batch: 050520) right after surgery and the […]
following day. […]
The test battery of the CIBP model was carried out 45 or 90 min after morphine and mPD5 administration respectively to accommodate the peak efficacy […]
Mechanically evoked pain (von Frey test).
Unless otherwise specified, von Frey occurred as described in the following. Animals were habituated to the experimental room for a minimum of 60 min before initiation of the experiment. Mechanical paw withdrawal threshold (PWT) was determined by von Frey measurements of both hind paws. Von Frey filaments ranging from 0.04 to 2 g (g = gram- […]
Filaments in ascending order were applied to the frontocentral plantar surface of the hind paws.
Mice were placed in PVC plastic boxes (11.5 cm x 14 cm) on a wire mesh and allowed minimum 20 min habituation prior of experiment initiation. Each von Frey hair was applied five times with adequate resting periods between each application and number of withdrawals recorded. The withdrawal threshold was determined as the von Frey filament eliciting at least three positive trials out of the five applications in two consecutive filaments. A positive trial was defined as sudden paw withdrawal, flinching and/or paw licking induced by the filament.
For the CIBP model, two habituation sessions were performed on separated days with mice placed in the von Frey equipment for 1-1.5 hours in the presence of the experimenter on day one and random von Frey pocking with the 0.6 g filament on day two. Von Frey monofilaments (North Coast Touch Test, North Coast Medical, Inc.) with target forces of 0.04g, 0.07g, 0.16g, […]
down method” (PWT=10Xf+kδ) starting with the 0.6 g filament. Positive response was defined as; withdrawal, shaking or grooming of paw following a 2-3 second stimulation. In case, of unclear response, stimulus was repeated after 10-15 seconds.
For the STZ model, the mechanical threshold response of the injected mice was measured with […]
injection of test compounds on day 14, mechanical threshold was measured at 1 hour, 2 hours, 4 hours and 6 hours and again on day 15. […]
Thermally evoked pain (Hargreaves test).
A baseline Hargreaves test was performed on day 0 before inflammatory pain was induced as described in section 2.13. In the Hargreaves test, the mouse was placed in a container on a glass […]

[2] = Plasma exposure after single s.c. injection, LC-MS/MS; type: in vivo, mouse; set-up: maximal plasma concentration / plasma concentration, individual mice: unit not given here
Protocol: Assessment of plasma levels and biodistribution of mPD5.
The mPD5 plasma exposure was determined by (WuXI AppTec (Shanghai, China)) and done following s.c. injection of three male C57BL/6N (vendor: VTLH) mice (7-9 weeks old, fasted) with each concentration of mPD5 (2, 10 and 50 µmol/kg) in sterile PBS. Blood samples were taken 30 min, 1 hour, 2 hours, 5 hours, and 12 hours following injection. For the repeated administration experiment, the initial s.c. injection of 10 µmol/kg was followed by 4 s.c. administrations of 2 µmol/kg with one hour between injections. Following the last injection, blood samples (0.03 mL from saphenous vein or other suitable site) were collected in EDTA- […]
K2 tubes at 5 min, 30 min, 1 hour, 5 hours, 12 hours, 24 hours, and 48 hours and centrifuged (app 4 ℃, 3200 g, 10 min) for collection of plasma. Plasma was transferred to 96 well plates and quick-frozen over dry ice and kept at -60 ℃ until LC-MS/MS analysis. For LC-MS/MS analysis plasma with 0.25% Triton X100 in 50% MeOH/water (6 µL) was quenched with 160 µL of IS1 (internal standard in MeOH (Labetalol & tolbutamide & Verapamil & dexamethasone & glyburide & Celecoxib 100 ng/mL for each)) and the mixture was vortexed for 10 min at 800 rpm and centrifuged for 15 min at 3220 × g at 4 ℃. An aliquot of 65 µL supernatant was transferred to a clean 96-well plate and centrifuged for 5 min at 3220 × g at 4 ℃, then the supernatant was directly injected for LC-MS/MS analysis. Plasma half-lives were determined from three points in the elimination phase. […]

CCCCCCCCCCCCCC(=O)N(CCOCCOCCC(=O)N[C@@H](Cc1c[nH]cn1)C(=O)N[C@@H](Cc1c[nH]c2ccccc12)C(=O)N[C@@H](CC(C)C)C(=O)N[C@@H](CCCCN)C(=O)N[C@H](C(=O)O)C(C)C)CCOCCOCCC(=O)N[C@@H](Cc1c[nH]cn1)C(=O)N[C@@H](Cc1c[nH]c2ccccc12)C(=O)N[C@@H](CC(C)C)C(=O)N[C@@H](CCCCN)C(=O)N[C@H](C(=O)O)C(C)C [mPD5, myristoyl-NPEG4-(HWLKV)2]
effect on mechanical hypersensitivity (PWT) ([1]; PICK1-KO mice following SNI surgery): no effect on mechanical hypersensitivity
von Frey paw withdrawal threshold, individual animals (Fig 5F) ([1]; PICK1-KO, CONTRA, BL): 1.4 (4×) and 2 (2×)
von Frey paw withdrawal threshold, individual animals (Fig 5F) ([1]; PICK1-KO, CONTRA, time 0): 1 (3×) and 1.4 (3×)
von Frey paw withdrawal threshold, individual animals (Fig 5F) ([1]; PICK1-KO, CONTRA, time 1): 1.4 (3×) and 0.6 and 2 and 1
von Frey paw withdrawal threshold, individual animals (Fig 5F) ([1]; PICK1-KO, CONTRA, time 5): 1 and 1.4 (3×) and 2 (2×)
von Frey paw withdrawal threshold, individual animals (Fig 5F) ([1]; PICK1-KO, injured side, BL): 1.4 (4×) and 2 and 1
von Frey paw withdrawal threshold, individual animals (Fig 5F) ([1]; PICK1-KO, injured side, time 0): 0.6 and 0.07 and 0.4 (2×) and 0.16 (2×)
von Frey paw withdrawal threshold, individual animals (Fig 5F) ([1]; PICK1-KO, injured side, time 1): 0.4 (2×) and 0.16 (3×) and 0.07
von Frey paw withdrawal threshold, individual animals (Fig 5F) ([1]; PICK1-KO, injured side, time 5): 0.16 (2×) and 0.07 (3×) and 0.4
von Frey paw withdrawal threshold, individual animals (Fig 5F) ([1]; PICK1-WT, CONTRA, BL): 1 (2×) and 1.4 (4×)
von Frey paw withdrawal threshold, individual animals (Fig 5F) ([1]; PICK1-WT, CONTRA, time 0): 1.4 (4×) and 1 and 2
von Frey paw withdrawal threshold, individual animals (Fig 5F) ([1]; PICK1-WT, CONTRA, time 1): 1.4 (3×) and 1 (2×) and 2
von Frey paw withdrawal threshold, individual animals (Fig 5F) ([1]; PICK1-WT, CONTRA, time 5): 1.4
von Frey paw withdrawal threshold, individual animals (Fig 5F) ([1]; PICK1-WT, injured side, BL): 1 (2×) and 1.4 (3×) and 2
von Frey paw withdrawal threshold, individual animals (Fig 5F) ([1]; PICK1-WT, injured side, time 0): 0.07 (2×) and 0.16 (3×) and 0.4
von Frey paw withdrawal threshold, individual animals (Fig 5F) ([1]; PICK1-WT, injured side, time 1): 1.4 (4×) and 1 (2×)
von Frey paw withdrawal threshold, individual animals (Fig 5F) ([1]; PICK1-WT, injured side, time 5): 0.6 (2×) and 0.4 (3×) and 1
effect on mechanical hypersensitivity (PWT) ([1]; WT littermates following SNI surgery): significantly reduced
half-life ([2]; male, C57BL/6N, mouse, plasma, sc, 2 umol/kg, mice, s.c. 2 μmol/kg): 30 ± 4.2 min
half-life ([2]; male, C57BL/6N, mouse, plasma, sc, 10 umol/kg, mice, s.c. 10 μmol/kg): 35.4 ± 4.2 min
half-life ([2]; male, C57BL/6N, mouse, plasma, sc, 10 umol/kg; mice, s.c. 10 μmol/kg): 36 min
half-life ([2]; male, C57BL/6N, mouse, plasma, sc, 50 umol/kg, mice, s.c. 50 μmol/kg): 50.4 ± 1.8 min
Tmax ([2]; male, C57BL/6N, mouse, plasma, sc, 50 umol/kg; mice, s.c., all doses (2, 10, 50 μmol/kg); read-out: time of maximal plasma concentration): 60 min
maximal plasma concentration ([2]; mice, s.c. 2 μmol/kg, 1 hour): 1.4 ± 0.1
maximal plasma concentration ([2]; mice, s.c. 10 μmol/kg, 1 hour): 6.2 ± 5
maximal plasma concentration ([2]; mice, s.c. 50 μmol/kg, 1 hour): 20.2 ± 0.6
maximal dose and area under the curve vs dose ([2]; mice, s.c. 2, 10, 50 μmol/kg): scaled linearly with dose
distribution volume ([2]; mice, s.c., all concentrations): approximately 30 mL
elimination kinetics ([2]; mice, s.c., all doses): first-order kinetics; also recorded: eliminated with linear kinetics
plasma concentration, individual mice ([2]; s.c. 2µmol/kg; 0.5 h): 1295 and 1523 and 1490
plasma concentration, individual mice ([2]; s.c. 2µmol/kg; 1 h): 1326 and 1469 and 1351
plasma concentration, individual mice ([2]; s.c. 2µmol/kg; 2 h): 439 and 392 and 443
plasma concentration, individual mice ([2]; s.c. 2µmol/kg; 5 h): 8.69 and 2.25 and 8.61
plasma concentration, individual mice ([2]; s.c. 10µmol/kg; 0.5 h): 4235 and 5102 and 3488
plasma concentration, individual mice ([2]; s.c. 10µmol/kg; 1 h): 6616 and 5618 and 6285
plasma concentration, individual mice ([2]; s.c. 10µmol/kg; 2 h): 2485 and 2007 and 1777
plasma concentration, individual mice ([2]; s.c. 10µmol/kg; 5 h): 101 and 46.6 and 33.1
plasma concentration, individual mice ([2]; s.c. 50µmol/kg; 0.5 h): 12546 and 11390 and 17752
plasma concentration, individual mice ([2]; s.c. 50µmol/kg; 1 h): 20045 and 20980 and 19750
plasma concentration, individual mice ([2]; s.c. 50µmol/kg; 2 h): 14800 and 13957 and 8907
plasma concentration, individual mice ([2]; s.c. 50µmol/kg; 5 h): 1391 and 1198 and 438
plasma concentration, individual mice ([2]; s.c. 50µmol/kg; 12 h): 3.21 and 3.81 and 2.66
